From ChEMBL document CHEMBL1131857, “Quinolizidinyl derivatives of 5,11-dihydro-6H-pyrido[2,3-b][1,4]benzodiazepin-6-one as ligands for muscarinic receptors” (Bioorg Med Chem Lett, 1999) come the findings set out here.

The structures appear in SMILES notation.

The target of experiment [1] is T1, Muscarinic acetylcholine receptor M2 (Rattus norvegicus, UniProt P10980).
T1 sequence (P10980 whole entry): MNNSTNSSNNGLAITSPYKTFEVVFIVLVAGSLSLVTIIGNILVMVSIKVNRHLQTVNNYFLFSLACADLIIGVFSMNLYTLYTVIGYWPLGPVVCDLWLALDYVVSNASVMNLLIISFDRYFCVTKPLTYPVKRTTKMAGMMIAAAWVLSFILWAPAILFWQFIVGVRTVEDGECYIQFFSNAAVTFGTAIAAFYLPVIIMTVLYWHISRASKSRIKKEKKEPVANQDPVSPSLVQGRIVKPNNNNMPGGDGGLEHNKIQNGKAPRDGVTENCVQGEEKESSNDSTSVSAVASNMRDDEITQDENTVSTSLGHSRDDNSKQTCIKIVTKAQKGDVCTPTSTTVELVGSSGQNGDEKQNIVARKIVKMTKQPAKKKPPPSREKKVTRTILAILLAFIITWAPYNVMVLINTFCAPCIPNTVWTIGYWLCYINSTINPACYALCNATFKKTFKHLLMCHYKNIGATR
Nature of the experiment: Displacement of [3H]methylscopolamine binding to muscarinic M2 receptor in rat heart.

Experiment [2] concerns the target Muscarinic acetylcholine receptor M3 (Rattus norvegicus, UniProt P08483). Nature of the experiment: Displacement of [3H]methylscopolamine binding to muscarinic M3 receptor in submaxillary salivary glands of rats. The format is tissue-based, Salivary gland.
Experiment [3] deals with T2, Muscarinic acetylcholine receptor M1 (Rattus norvegicus, UniProt P08482).
T2 sequence (P08482 whole entry): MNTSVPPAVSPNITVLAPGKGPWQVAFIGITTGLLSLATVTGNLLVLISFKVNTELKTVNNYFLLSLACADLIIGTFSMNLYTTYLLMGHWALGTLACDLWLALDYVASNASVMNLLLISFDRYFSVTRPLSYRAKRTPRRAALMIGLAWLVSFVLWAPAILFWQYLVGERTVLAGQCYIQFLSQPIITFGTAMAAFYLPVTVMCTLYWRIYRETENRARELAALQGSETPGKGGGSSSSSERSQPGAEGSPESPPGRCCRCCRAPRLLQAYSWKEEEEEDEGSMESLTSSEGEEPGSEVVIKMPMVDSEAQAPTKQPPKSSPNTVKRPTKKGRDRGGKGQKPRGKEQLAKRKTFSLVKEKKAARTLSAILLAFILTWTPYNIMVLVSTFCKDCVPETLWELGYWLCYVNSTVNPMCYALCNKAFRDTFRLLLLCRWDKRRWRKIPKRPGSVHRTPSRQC
Nature of the experiment: Displacement of [3H]pirenzepine binding to muscarinic M1 receptor in brain cortex of rat. The class given is tissue-based.

Muscarinic acetylcholine receptor M3, sequence (P08483 whole entry): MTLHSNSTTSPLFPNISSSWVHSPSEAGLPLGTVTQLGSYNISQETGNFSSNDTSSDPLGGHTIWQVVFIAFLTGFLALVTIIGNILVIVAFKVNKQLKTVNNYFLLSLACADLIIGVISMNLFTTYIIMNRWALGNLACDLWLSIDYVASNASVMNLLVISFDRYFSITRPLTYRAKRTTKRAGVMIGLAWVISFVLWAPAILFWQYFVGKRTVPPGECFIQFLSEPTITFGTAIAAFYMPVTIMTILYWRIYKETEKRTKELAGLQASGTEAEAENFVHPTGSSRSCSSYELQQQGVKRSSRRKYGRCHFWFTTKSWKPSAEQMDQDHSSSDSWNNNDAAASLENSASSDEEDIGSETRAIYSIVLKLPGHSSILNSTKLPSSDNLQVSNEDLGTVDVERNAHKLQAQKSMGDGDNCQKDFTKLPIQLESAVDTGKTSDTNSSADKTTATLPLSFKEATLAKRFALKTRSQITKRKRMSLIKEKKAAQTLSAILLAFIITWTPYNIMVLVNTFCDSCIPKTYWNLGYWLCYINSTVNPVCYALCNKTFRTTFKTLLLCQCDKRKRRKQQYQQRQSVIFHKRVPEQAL

Turning to `O=C1Nc2cccnc2N(C(=S)CC2CCCN3CCCC[C@@H]23)c2ccccc21` (some centres undefined), the IC50 in experiment [1] was found to be 0.76 µM; in experiment [2] it was 0.76 µM; in experiment [3] it was 0.01 µM.

Turning to `O=C1Nc2ccccc2N(C(=O)CC2CCCN3CCCCC23)c2ncccc21` (centres undefined), the IC50 in experiment [1] is 6.8 µM; in experiment [2], above 10 µM; in experiment [3], 0.65 µM.

`O=C1Nc2cccnc2N(C(=O)CNCC2CCCN3CCCCC23)c2ccccc21` (centres undefined): the IC50 was found to be 1 µM in experiment [1], 0.8 µM in experiment [2] and 0.028 µM in experiment [3].

Turning to `O=C1Nc2cccnc2N(C(=O)C[C@H]2CCCN3CCCCC23)c2ccccc21` (some centres undefined), the IC50 was found to be 1.9 µM in experiment [1], 3.5 µM in experiment [2] and 0.04 µM in experiment [3].

Consider `O=C1Nc2cccnc2N(C(=O)C[C@@H]2CCCN3CCCCC23)c2ccccc21` (some centres undefined), for which the IC50 in experiment [1] was 6 µM; in experiment [2] it was above 10 µM; in experiment [3], 0.11 µM.

With `O=C1c2ccccc2-n2c(nc3cccnc32)CN1C[C@@H]1CCCN2CCCC[C@H]12`, the values for the IC50 in experiment [1], in experiment [2] and in experiment [3] were 12 µM, above 10 µM and 1.2 µM, respectively.

In the case of `O=C1Nc2cccnc2N(C(=O)CSCC2CCCN3CCCCC23)c2ccccc21` (centres undefined), the IC50 turned out to be 0.76 µM in experiment [1], 0.76 µM in experiment [2] and 0.01 µM in experiment [3].

With `Cc1cc(C(=O)c2ccccc2)ccc1NC(=O)CC1CCCN2CCCC[C@H]12` (some centres undefined), the IC50 in experiment [1] was 2.4 µM; in experiment [2], 1.3 µM; in experiment [3] it was 0.008 µM.
